Test results as given in PubChem BioAssay (NCI).
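48-hour exposure; five concentrations; linearly interpolated endpoints. TGI denotes the concentration required for complete inhibition of growth.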

Key:
Assay in all cases: NCI anticancer screen, dose series, 48 h
SF-295 CNS = test system: SF-295 CNS
OVCAR-5 ovarian = test system: OVCAR-5 ovarian
SK-MEL-28 melanoma = test system: SK-MEL-28 melanoma
HOP-62 NSCLC = test system: HOP-62 NSCLC
SK-MEL-2 melanoma = test system: SK-MEL-2 melanoma
BT-549 breast = test system: BT-549 breast
MDA-MB-435 = test system: MDA-MB-435
HT29 colon = test system: HT29 colon
HOP-92 NSCLC = test system: HOP-92 NSCLC
K-562 leukemia = test system: K-562 leukemia
NCI/ADR-RES ovarian = test system: NCI/ADR-RES ovarian
MDA-MB-231 breast = test system: MDA-MB-231 breast
HCT-116 colon = test system: HCT-116 colon
SK-MEL-5 melanoma = test system: SK-MEL-5 melanoma
RXF 393 renal = test system: RXF 393 renal
A498 renal = test system: A498 renal
CCRF-CEM leukemia = test system: CCRF-CEM leukemia
PC-3 prostate = test system: PC-3 prostate
HS 578T breast = test system: HS 578T breast
OVCAR-8 ovarian = test system: OVCAR-8 ovarian
SNB-75 CNS = test system: SNB-75 CNS
MOLT-4 leukemia = test system: MOLT-4 leukemia
LOX IMVI melanoma = test system: LOX IMVI melanoma
SNB-19 CNS = test system: SNB-19 CNS
DU-145 prostate = test system: DU-145 prostate
SN12C renal = test system: SN12C renal
KM12 colon = test system: KM12 colon
NCI-H226 lung = test system: NCI-H226 lung
EKVX NSCLC = test system: EKVX NSCLC
COLO 205 colon = test system: COLO 205 colon
ACHN renal = test system: ACHN renal
NCI-H23 lung = test system: NCI-H23 lung
NCI-H522 lung = test system: NCI-H522 lung
CAKI-1 renal = test system: CAKI-1 renal
RPMI-8226 leukemia = test system: RPMI-8226 leukemia
IGROV1 ovarian = test system: IGROV1 ovarian
U251 CNS = test system: U251 CNS
T-47D breast = test system: T-47D breast
OVCAR-4 ovarian = test system: OVCAR-4 ovarian
HCT-15 colon = test system: HCT-15 colon
SW-620 colon = test system: SW-620 colon
UACC-62 melanoma = test system: UACC-62 melanoma
SK-OV-3 ovarian = test system: SK-OV-3 ovarian
MALME-3M melanoma = test system: MALME-3M melanoma
M14 melanoma = test system: M14 melanoma
MDA-N = test system: MDA-N
OVCAR-3 ovarian = test system: OVCAR-3 ovarian
SF-268 CNS = test system: SF-268 CNS
786-0 renal = test system: 786-0 renal
TK-10 renal = test system: TK-10 renal
UO-31 renal = test system: UO-31 renal
UACC-257 melanoma = test system: UACC-257 melanoma
A549 NSCLC = test system: A549 NSCLC
SR leukemia = test system: SR leukemia
HL-60(TB) leukemia = test system: HL-60(TB) leukemia
SF-539 CNS = test system: SF-539 CNS
NCI-H460 lung = test system: NCI-H460 lung
MCF7 breast = test system: MCF7 breast

Structure (SMILES): Cc1cc(C)c(N=Nc2c(O)c(S(=O)(=O)O)cc3cc(S(=O)(=O)O)ccc23)cc1C
- TGI (SF-295 CNS): > 100 µM
- TGI (OVCAR-5 ovarian): > 100 µM
- TGI (SK-MEL-28 melanoma): > 100 µM
- TGI (HOP-62 NSCLC): > 100 µM
- TGI (SK-MEL-2 melanoma): > 100 µM
- TGI (BT-549 breast): > 100 µM
- TGI (MDA-MB-435): > 100 µM
- TGI (HT29 colon): > 100 µM
- TGI (HOP-92 NSCLC): > 100 µM
- TGI (K-562 leukemia): > 100 µM
- TGI (NCI/ADR-RES ovarian): > 100 µM
- TGI (MDA-MB-231 breast): > 100 µM
- TGI (HCT-116 colon): > 100 µM
- TGI (SK-MEL-5 melanoma): > 100 µM
- TGI (RXF 393 renal): > 100 µM
- TGI (A498 renal): > 100 µM
- TGI (CCRF-CEM leukemia): > 100 µM
- TGI (PC-3 prostate): > 100 µM
- TGI (HS 578T breast): > 100 µM
- TGI (OVCAR-8 ovarian): > 100 µM
- TGI (SNB-75 CNS): > 100 µM
- TGI (MOLT-4 leukemia): > 100 µM
- TGI (LOX IMVI melanoma): > 100 µM
- TGI (SNB-19 CNS): > 100 µM
- TGI (DU-145 prostate): > 100 µM
- TGI (SN12C renal): > 100 µM
- TGI (KM12 colon): > 100 µM
- TGI (NCI-H226 lung): > 100 µM
- TGI (EKVX NSCLC): > 100 µM
- TGI (COLO 205 colon): > 100 µM
- TGI (ACHN renal): > 100 µM
- TGI (NCI-H23 lung): > 100 µM
- TGI (NCI-H522 lung): > 100 µM
- TGI (CAKI-1 renal): > 100 µM
- TGI (RPMI-8226 leukemia): > 100 µM
- TGI (IGROV1 ovarian): > 100 µM
- TGI (U251 CNS): > 100 µM
- TGI (T-47D breast): > 100 µM
- TGI (OVCAR-4 ovarian): > 100 µM
- TGI (HCT-15 colon): > 100 µM
- TGI (SW-620 colon): > 100 µM
- TGI (UACC-62 melanoma): > 100 µM
- TGI (SK-OV-3 ovarian): > 100 µM
- TGI (MALME-3M melanoma): > 100 µM
- TGI (M14 melanoma): > 100 µM
- TGI (MDA-N): > 100 µM
- TGI (OVCAR-3 ovarian): > 100 µM
- TGI (SF-268 CNS): > 100 µM
- TGI (786-0 renal): > 100 µM
- TGI (TK-10 renal): > 100 µM
- TGI (UO-31 renal): > 100 µM
- TGI (UACC-257 melanoma): > 100 µM
- TGI (A549 NSCLC): > 100 µM

Structure (SMILES): O=S(=O)(/N=C(\NO)Nc1ccc(Cl)cc1)c1ccc(-c2ccccn2)s1
- TGI (SF-295 CNS): > 100 µM
- TGI (OVCAR-5 ovarian): > 100 µM
- TGI (SK-MEL-28 melanoma): > 100 µM
- TGI (SR leukemia): > 100 µM
- TGI (HOP-62 NSCLC): > 100 µM
- TGI (SK-MEL-2 melanoma): > 100 µM
- TGI (BT-549 breast): > 100 µM
- TGI (MDA-MB-435): > 100 µM
- TGI (HT29 colon): > 100 µM
- TGI (HOP-92 NSCLC): > 100 µM
- TGI (K-562 leukemia): > 100 µM
- TGI (NCI/ADR-RES ovarian): > 100 µM
- TGI (MDA-MB-231 breast): > 100 µM
- TGI (HCT-116 colon): > 100 µM
- TGI (SK-MEL-5 melanoma): > 100 µM
- TGI (RXF 393 renal): 94.4 µM
- TGI (CCRF-CEM leukemia): > 100 µM
- TGI (PC-3 prostate): > 100 µM
- TGI (HS 578T breast): > 100 µM
- TGI (HL-60(TB) leukemia): > 100 µM
- TGI (OVCAR-8 ovarian): > 100 µM
- TGI (SNB-75 CNS): > 100 µM
- TGI (MOLT-4 leukemia): > 100 µM
- TGI (LOX IMVI melanoma): > 100 µM
- TGI (SNB-19 CNS): > 100 µM
- TGI (DU-145 prostate): > 100 µM
- TGI (SN12C renal): 72.9 µM
- TGI (KM12 colon): > 100 µM
- TGI (NCI-H226 lung): > 100 µM
- TGI (EKVX NSCLC): 98.8 µM
- TGI (COLO 205 colon): > 100 µM
- TGI (ACHN renal): > 100 µM
- TGI (NCI-H23 lung): > 100 µM
- TGI (NCI-H522 lung): 31.8 µM
- TGI (CAKI-1 renal): 66 µM
- TGI (IGROV1 ovarian): > 100 µM
- TGI (U251 CNS): > 100 µM
- TGI (T-47D breast): > 100 µM
- TGI (OVCAR-4 ovarian): > 100 µM
- TGI (HCT-15 colon): > 100 µM
- TGI (SW-620 colon): > 100 µM
- TGI (UACC-62 melanoma): > 100 µM
- TGI (SK-OV-3 ovarian): > 100 µM
- TGI (MALME-3M melanoma): 96.8 µM
- TGI (M14 melanoma): > 100 µM
- TGI (MDA-N): 94.5 µM
- TGI (OVCAR-3 ovarian): 40.2 µM
- TGI (SF-539 CNS): > 100 µM
- TGI (SF-268 CNS): > 100 µM
- TGI (NCI-H460 lung): > 100 µM
- TGI (TK-10 renal): > 100 µM
- TGI (UO-31 renal): > 100 µM
- TGI (UACC-257 melanoma): > 100 µM
- TGI (A549 NSCLC): > 100 µM

Structure (SMILES): NC(N)=NCC(N)C(=O)O (stereo not drawn)
- TGI (SF-295 CNS): > 100 µM
- TGI (OVCAR-5 ovarian): > 100 µM
- TGI (SK-MEL-28 melanoma): > 100 µM
- TGI (SR leukemia): > 100 µM
- TGI (HOP-62 NSCLC): > 100 µM
- TGI (SK-MEL-2 melanoma): > 100 µM
- TGI (BT-549 breast): > 100 µM
- TGI (MDA-MB-435): > 100 µM
- TGI (HT29 colon): > 100 µM
- TGI (HOP-92 NSCLC): > 100 µM
- TGI (K-562 leukemia): > 100 µM
- TGI (NCI/ADR-RES ovarian): > 100 µM
- TGI (MDA-MB-231 breast): > 100 µM
- TGI (HCT-116 colon): > 100 µM
- TGI (SK-MEL-5 melanoma): > 100 µM
- TGI (RXF 393 renal): > 100 µM
- TGI (A498 renal): > 100 µM
- TGI (PC-3 prostate): > 100 µM
- TGI (HS 578T breast): > 100 µM
- TGI (HL-60(TB) leukemia): > 100 µM
- TGI (MCF7 breast): > 100 µM
- TGI (OVCAR-8 ovarian): > 100 µM
- TGI (SNB-75 CNS): > 100 µM
- TGI (LOX IMVI melanoma): > 100 µM
- TGI (SNB-19 CNS): > 100 µM
- TGI (DU-145 prostate): > 100 µM
- TGI (SN12C renal): > 100 µM
- TGI (KM12 colon): > 100 µM
- TGI (NCI-H226 lung): > 100 µM
- TGI (EKVX NSCLC): > 100 µM
- TGI (COLO 205 colon): > 100 µM
- TGI (ACHN renal): > 100 µM
- TGI (NCI-H23 lung): > 100 µM
- TGI (NCI-H522 lung): > 100 µM
- TGI (CAKI-1 renal): > 100 µM
- TGI (RPMI-8226 leukemia): > 100 µM
- TGI (IGROV1 ovarian): > 100 µM
- TGI (U251 CNS): > 100 µM
- TGI (T-47D breast): > 100 µM
- TGI (OVCAR-4 ovarian): > 100 µM
- TGI (HCT-15 colon): > 100 µM
- TGI (SW-620 colon): > 100 µM
- TGI (UACC-62 melanoma): > 100 µM
- TGI (SK-OV-3 ovarian): > 100 µM
- TGI (MALME-3M melanoma): > 100 µM
- TGI (M14 melanoma): > 100 µM
- TGI (MDA-N): > 100 µM
- TGI (OVCAR-3 ovarian): > 100 µM
- TGI (SF-539 CNS): > 100 µM
- TGI (SF-268 CNS): > 100 µM
- TGI (786-0 renal): > 100 µM
- TGI (NCI-H460 lung): > 100 µM
- TGI (TK-10 renal): > 100 µM
- TGI (UO-31 renal): > 100 µM
- TGI (UACC-257 melanoma): > 100 µM
- TGI (A549 NSCLC): > 100 µM
